Patent publication US11998008B2, “Pesticides and methods of controlling pests” (The State of Israel, Ministry of Agriculture & Rural …, priority 2017, dated 2024)
Entries after “also recorded” stand apart in the source; their conditions may differ.

Tests used:
[1] = test system: Meloidogyne javanica second stage juveniles (J2s); assay: Nematocidal activity: viability of J2 nematodes after 2 days exposure to the compound in a sealed box; assay type: in vivo
Excerpt: In exemplary procedures, the sedentary root-knot nematode from the genus Meloidogyne javanica second stage juveniles (J2s) was propagated on greenhouse-grown nematode-susceptible tomato Lycopersicon esculentum cv. ‘Avigail 870’ (Hazera, Shikmim, Israel), and nematode eggs were bulk-extracted from the roots with 0.05% (v/v) sodium hypochlorite (NaOCl) followed by sucrose flotation and successive sievings through nylon filters of 300, 120, 60, and 30 μm mesh sizes (AD Sinun Technologies, Petach Tikvah, Israel). For hatching J2, extracted eggs were placed on 30-μm sieves (AD Sinun Technologies) in 0.01 M MES (2-(N-morpholino) ethanesulfonic acid hydrate) pH 6.5 buffer under aseptic conditions in darkness for 5 days, and hatching J2s were collected for further experiments.
Seven vials, each containing 300 J2 nematodes with 0.5 mL of 0.01 M 2-(N-morpholino)ethanesulfonic acid (MES) buffer, were exposed to cyclic ketone compounds in order to examine their nematocidal activity and reduction in viability. In addition, a humid environment in a sealed 1 L box was maintained by addition 5 ml of distilled H2O to a 50-mm Petri plate. The box was sealed after compound addition into each 50-mm Petri plate together with 5-250 mg of perlite particles and incubated for 2 days in the dark at 25±1° C. C5 and C6 saturated and α,β-unsaturated cyclic ketones were tested for their nematocidal activity. The J2 nematodes viability was examined following exposure to the cyclic ketone compounds, by a straightforward small-scale nematode extraction method, based on the traditional Baermann funnel method. Briefly, all nematode suspensions were loaded onto 30-μm (AD Sinun Technologies) filters (1.0-1.5 cm height, 1.1-2.0 cm^3 internal area), and the nematodes were washed twice with 300 μL of 0.01 M MES buffer in order to remove any residues. Then, filters holding nematodes were placed into 15 mL Falcon centrifuge tubes, each containing 900 μL of 0.01 M of MES buffer. These filters allow active passage of only living J2s while paralyzed or dead nematodes remain on top of the filter. The whole apparatus including the filter holding the nematodes and the Falcon tubes were placed in the dark for 3 h at 25±1° C. Then, the filters were removed and the viable nematodes, which were able to actively cross the filter toward the 0.01 M of MES buffer, were collected from the Falcon tube and counted using a Nematode Counting Slide (Chalex LLC, Portland, OR, USA) and a SV11 stereomicroscope (Zeiss, Jena, Germany).
Data were analyzed by the JMP 12 software package (SAS Inc., Cary, NC, USA). Mean numbers of viable J2s under various conditions were subjected to one-way analysis of variance (ANOVA), followed by the Tukey-Kramer multiple comparison test, with significance set at P<0.05.

A. alternata = assay: Fungicidal activity assay on PDA in sealed Petri dish (growth inhibition and mortality); assay type: cell-based, Alternaria alternata; conditions: for I - Inhibition class: 2 days; for I - Inhibition, minimal concentration that inhibited the growth: concentration to which the class above belongs
Procedure: (§1) In exemplary procedures, the fungicidial activity of the compounds listed in Table 2 were examined by activity assays as follow: Petri dishes, 90 mm in diameter, with air volume of 80 mL, contained 10-12 mL of growth medium comprising potato dextrose agar (PDA) (Acumedia, Lansing, Michigan, USA) amended with tetracycline at 12 μg/mL. Each compound was placed on a disconnected cover from an Eppendorf tube that was located in the middle of the Petri dish and a hyphae-containing plug of each test fungus was added to the culture plate. In exemplary procedures, the tested compounds trans-2-heptenal, trans-2-octenal were tested in comparison with octanal, trans-2-octen-1-ol, methyl trans-2-octenoate, trans-3-octen-2-one and 3-pentenenitrile. In addition, cyclic ketones as 2-cyclopenten-1-one, 2-cyclohexen-1-one and α-tetralone were also examined. Then, the culture plate was sealed with parafilm and incubated at room-temperature for 2 days, after which the growth of the test fungi in those dishes was compared with those in the test compound-free control dishes. At the end of the assay, the viability of each test fungus was evaluated by transferring inoculum plugs to fresh PDA plates and observing the growth that developed within the next 2 days. The test fungi used in this study included but were not limited to Alternaria alternata, Botrytis cinerea, Sclerotinia rolfsii, Penicillium digitatum, Fusarium oxysporum f. sp. radicis-cucumerinum and Rhizoctonia solani.

B. cinerea = assay: as above; assay type: cell-based, Botrytis cinerea; conditions: for I - Inhibition class: 2 days; for I - Inhibition, minimal concentration that inhibited the growth: concentration to which the class above belongs
Procedure: as §1

S. rolfsii = assay: as above; assay type: cell-based, Sclerotinia rolfsii; conditions: S. rolfsii; for I - Inhibition class: 2 days; for M - Mortality, minimal concentration that killed the fungus / MFC: NA + number = still viable in the highest concentration tested (given as >); for I - Inhibition, minimal concentration that inhibited the growth: concentration to which the class above belongs; for MFC: Agroathelia rolfsii, read-out: M - Mortality, minimal concentration that killed the fungus
Procedure: as §1, with “Each” for “In exemplary procedures, the fungicidial activity of the compounds listed in Table 2 were examined by activity assays as follow: Petri dishes, 90 mm in diameter, with air volume of 80 mL, contained 10-12 mL of growth medium comprising potato dextrose agar (PDA) (Acumedia, Lansing, Michigan, USA) amended with tetracycline at 12 μg/mL. Each”

P. digitatum = assay: as above; assay type: cell-based, Penicillium digitatum; conditions: for I - Inhibition class: 2 days; for I - Inhibition, minimal concentration that inhibited the growth: concentration to which the class above belongs
Procedure: as §1

[2] = test system: Meloidogyne javanica second stage juveniles (J2s); assay: Nematocidal activity: viability of J2 nematodes after 2 days exposure to the compound in a sealed box; conditions: in vivo
[3] = test system: F. oxysporum f. sp. radicis-cucumerium; assay: Fungicidal activity assay on PDA in sealed Petri dish (growth inhibition and mortality); assay type: cell-based, Fusarium oxysporum f. sp. radicis-cucumerinum; conditions: for MFC: Fusarium oxysporum, read-out: M - Mortality, minimal concentration that killed the fungus; for MFC / M - Mortality, minimal concentration that killed the fungus: NA + number = still viable in the highest concentration tested (given as >); for I - Inhibition class: 2 days; for I - Inhibition, minimal concentration that inhibited the growth: concentration to which the class above belongs
Procedure: as §1, with “Each” for “In exemplary procedures, the fungicidial activity of the compounds listed in Table 2 were examined by activity assays as follow: Petri dishes, 90 mm in diameter, with air volume of 80 mL, contained 10-12 mL of growth medium comprising potato dextrose agar (PDA) (Acumedia, Lansing, Michigan, USA) amended with tetracycline at 12 μg/mL. Each”

R. solani = assay: microbe, parasite or virus in culture; assay type: cell-based; conditions: R. solani; for MFC: Rhizoctonia solani, read-out: M - Mortality, minimal concentration that killed the fungus; for MFC / M - Mortality, minimal concentration that killed the fungus: NA + number = still viable in the highest concentration tested (given as >); for I - Inhibition class: 2 days; for I - Inhibition, minimal concentration that inhibited the growth: concentration to which the class above belongs
Procedure: as §1, with “Each” for “In exemplary procedures, the fungicidial activity of the compounds listed in Table 2 were examined by activity assays as follow: Petri dishes, 90 mm in diameter, with air volume of 80 mL, contained 10-12 mL of growth medium comprising potato dextrose agar (PDA) (Acumedia, Lansing, Michigan, USA) amended with tetracycline at 12 μg/mL. Each”

test fungi = assay: Fungicidal activity assay on PDA, summaries over the test fungi; assay type: cell-based; conditions: comparison within the series
Procedure: as §1

Tomato plants = assay: Phytotoxicity on tomato plants in soil, compound on perlite particles; assay type: in vivo; conditions: one day after treatment
Excerpt: In exemplary procedures, the phytotixicity of trans-2-octenal and 2-cyclopenten-1-one was examined in triplicates for each concentration: 250, 1,000, 4,000, and 20,000 ppm compared to control.

[4] = at the concentration given, 2 days incubation
[5] = NA + number = still viable in the highest concentration tested (given as >)

## CC(C)=CCCC(C)=CCCC(C)=CC=O (single isomer, unassigned) [Farnesal mixture of isomers, Farnesal]
[1]; [4]
  Activity: reduction in J2s viability relative to non exposed control J2s (class): N (<50% reduction in viability)
A. alternata
  I - Inhibition class: NI (<50% growth inhibition)
  I - Inhibition, minimal concentration that inhibited the growth: 125 ppm
A. alternata; [5]
  M - Mortality, minimal concentration that killed the fungus: > 125 ppm
B. cinerea
  I - Inhibition class: MI (Medium inhibition - 76-99% of growth inhibition)
  I - Inhibition, minimal concentration that inhibited the growth: 12.5 ppm
B. cinerea; [5]
  M - Mortality, minimal concentration that killed the fungus: > 125 ppm
S. rolfsii
  I - Inhibition class: MI (Medium inhibition - 76-99% of growth inhibition)
  M - Mortality, minimal concentration that killed the fungus: > 125 ppm
  I - Inhibition, minimal concentration that inhibited the growth: 125 ppm
P. digitatum
  I - Inhibition class: NI (<50% growth inhibition)
  I - Inhibition, minimal concentration that inhibited the growth: 125 ppm
P. digitatum; [5]
  M - Mortality, minimal concentration that killed the fungus: > 125 ppm
[2]
  Activity: the most effective concentration: N 250 ppm

## O=C1C=CCC1 [2-cyclopenten-1-one]
S. rolfsii
  MFC: > 25 µg/mL
[3]
  MFC: > 25 µg/mL
R. solani
  MFC: > 25 µg/mL
Test fungi
  fungicidal activity in words: fungicidal activity, to some extent
Tomato plants; 250 ppm
  phytotoxicity: No phytotoxicity
Tomato plants; 1,000 ppm
  phytotoxicity: phytotoxic; also recorded: Low phytotoxicity
Tomato plants; 4,000 ppm
  phytotoxicity: phytotoxic; also recorded: Medium phytotoxicity
Tomato plants; 20,000 ppm
  phytotoxicity: phytotoxic; also recorded: Strong phytotoxicity

## O=C1CCCCCC1 [Cycloheptanone]
[1]; comparison within the series
  nematocidal activity in words: nematocidal effects at substantially higher concentrations
A. alternata; Alternaria alternata, NA + number = still viable in the highest concentration tested (given as >), read-out: M - Mortality, minimal concentration that killed the fungus
  MFC: 1250 µg/mL
B. cinerea; Botrytis cinerea, NA + number = still viable in the highest concentration tested (given as >), read-out: M - Mortality, minimal concentration that killed the fungus
  MFC: 1250 µg/mL
S. rolfsii
  MFC: 2500 µg/mL
P. digitatum; Penicillium digitatum, NA + number = still viable in the highest concentration tested (given as >), read-out: M - Mortality, minimal concentration that killed the fungus
  MFC: 2500 µg/mL
[3]
  MFC: > 250 µg/mL
R. solani
  MFC: > 250 µg/mL

## C/C=C(\C)C=O [Tiglic aldehyde]
[1]; [4]
  Activity: reduction in J2s viability relative to non exposed control J2s (class): M (76-90% reduction in viability)
S. rolfsii
  I - Inhibition class: MI (Medium inhibition - 76-99% of growth inhibition)
  M - Mortality, minimal concentration that killed the fungus: > 25 ppm
  I - Inhibition, minimal concentration that inhibited the growth: 25 ppm
[3]
  I - Inhibition class: NI (<50% growth inhibition)
  M - Mortality, minimal concentration that killed the fungus: > 25 ppm
  I - Inhibition, minimal concentration that inhibited the growth: 25 ppm
R. solani
  I - Inhibition class: MI (Medium inhibition - 76-99% of growth inhibition)
  M - Mortality, minimal concentration that killed the fungus: > 25 ppm
  I - Inhibition, minimal concentration that inhibited the growth: 25 ppm
[2]
  Activity: the most effective concentration: M 25 ppm

## O=C1CCCc2ccccc21 [α-Tetralone]
[1]; concentration to which the class of the same cell belongs
  Activity: the most effective concentration: 25 ppm
S. rolfsii
  I - Inhibition class: NI (<50% growth inhibition)
  M - Mortality, minimal concentration that killed the fungus: > 25 ppm
  I - Inhibition, minimal concentration that inhibited the growth: 25 ppm
[3]
  I - Inhibition class: NI (<50% growth inhibition)
  M - Mortality, minimal concentration that killed the fungus: > 25 ppm
  I - Inhibition, minimal concentration that inhibited the growth: 25 ppm
R. solani
  I - Inhibition class: NI (<50% growth inhibition)
  M - Mortality, minimal concentration that killed the fungus: > 25 ppm
  I - Inhibition, minimal concentration that inhibited the growth: 25 ppm
Test fungi
  fungicidal activity in words: further reduced fungicidal activity

## CC(=O)/C=C/C1C(C)=CCCC1(C)C (stereo not drawn) [α-ionone]
[1]; in vivo
  Activity: reduction in J2s viability relative to non exposed control J2s (class): N 250 (key: S: >90% reduction in viability; M: 76-90% reduction in viability; L: 51-75% reduction in viability; N: <50% reduction in viability)
A. alternata
  I - Inhibition class: LI (Low inhibition - 51-75% of growth inhibition compared to control.)
  I - Inhibition, minimal concentration that inhibited the growth: 1250 ppm
A. alternata; [5]
  M - Mortality, minimal concentration that killed the fungus: > 1250 ppm
B. cinerea
  I - Inhibition class: LI (Low inhibition - 51-75% of growth inhibition compared to control.)
  I - Inhibition, minimal concentration that inhibited the growth: 1250 ppm
B. cinerea; [5]
  M - Mortality, minimal concentration that killed the fungus: > 1250 ppm
S. rolfsii
  I - Inhibition class: LI (Low inhibition - 51-75% of growth inhibition compared to control.)
  M - Mortality, minimal concentration that killed the fungus: > 1250 ppm
  I - Inhibition, minimal concentration that inhibited the growth: 1250 ppm
P. digitatum
  I - Inhibition class: NI (<50% growth inhibition)
  I - Inhibition, minimal concentration that inhibited the growth: 1250 ppm
P. digitatum; [5]
  M - Mortality, minimal concentration that killed the fungus: > 1250 ppm
[2]
  Activity: the most effective concentration: N 250 ppm
